Where two headings read alike, the source gives them in different places. Blank lines part the entries; values can stand above or below the compound they belong to.
Assays:
[1] = Pharmacokinetics in rats after I.V. injection or oral administration, plasma drug concentration quantified by HPLC
Protocol: (§1) The pharmacokinetics of the pharmaceutical composition of the present disclosure is analyzed in this experiment. There are two groups, the rats are oral administered of the pharmaceutical composition of the present disclosure with 12 mg/kg of paclitaxel and 12 mg/kg of gemcitabine as the oral group, and the rats are tail intravenous injected at a dose of 12 mg/kg of paclitaxel and 12 mg/kg of gemcitabine as the I.V. group. After administration, blood of rat is collected from the tail vein at 0.5, 1, 2, 3, 4, 6, 8, 10, 12, 24, 48 hours, and plasma of rat is obtained after centrifugation. After treatment, the drug concentration is quantified by HPLC.
(§2) For quantifying gemcitabine (hereafter GEM), tetrahydrouridine (10 mM, 10 μL) is added, and 2 mL of an organic mixture (15% isopropanol in ethyl acetate) is added into 100 μL of the plasma. After mixing, the supernatant is centrifuged, dried, and then dissolved in the mobile phase to perform HPLC. Mobile phase is 0.1 M ammonium acetate:acetonitrile=98:2. For quantifying paclitaxel (hereafter PTX), 400 μL of acetonitrile is added into 100μL of plasma. After mixing well, the sample is centrifuged to remove the supernatant. Then 100 μL of ZnSO4 (10% w/v aqueous solution) is added. After mixing well, the sample is centrifuged to remove the supernatant. Then 1 mL of ethyl acetate is added. After mixing well, the sample is centrifuged to remove the supernatant, and then dried. Then the sample is dissolved in methanol to perform HPLC. Mobile phase is H2O:acetonitrile=90:10.

[2] = Lewis, rat, in vivo
Protocol: as §1, §2

in vivo = conditions: Lewis, rat, 12 mg/kg
Protocol: as §1, §2

RAW 264.7 cells = assay: Uptake of emulsion containing DiO and Rhodamine B by RAW 264.7 cells (CLSM); assay type: cell-based; conditions: 3 hours of incubation, FIG. 12
Protocol: To understand better the route of drug delivery, RAW 264.7 cells are added the prepared emulsion containing DiO and Rhodamine B and then cultured for 3 hours. The unabsorbed emulsion is washed with PBS, and then the cells are fixed with formalin, stained, and observed with the CLSM. In addition, the rats are oral administrated with the enteric-coated gelatin capsules that contained the pharmaceutical composition of the present disclosure (the dose of DiO and Rhodamine B is 12 mg/kg, respectively). The animals are sacrificed 6 hours after oral administration, the MLNs are retrieved from euthanized rats, and the tissues are fixed in formalin for 4 hours at room temperature. Then the tissue was cut to size and embedded in OCT gel for frozen section and subsequent staining. The sections are finally examined by CLSM.

[3] = Ex vivo IVIS biodistribution of fluorescent model drugs in major organs; design: species or system rats; conditions: FIG. 14
Protocol: Further, ex vivo imaging of the distributions of different drugs in the major organs that are isolated from the test rats was conducted using an in vivo imaging system (IVIS). The rats are oral administrated a dose of 12 mg/kg of DiO and 12 mg/kg of Rhodamine B as an experiment group, and tail intravenous injected the same dose of DiO and Rhodamine B as an I.V. control group. In addition, the rats are intraperitoneally injected cycloheximide 1 hour before oral administration to block lymphatic absorption as a control group. The animals are sacrificed 6 hours after the feeding and 1 hour after the tail intravenous injection. At the time of maximum accumulation, the rats are sacrificed to remove the main organs (heart, lung, liver, spleen, pancreas and kidney) and the distribution of the fluorescent dye is observed by IVIS.

[4] = In vivo transport route by immunofluorescence staining (small intestine, MLNs, tumor; CLSM); design: species or system Lewis rats; conditions: oral capsule, DiO and Rhodamine B 12 mg/kg each, 6 hours after administration, FIG. 11
From the text: In addition to the comprehensive in vitro characterization of the pharmaceutical composition of the present disclosure, determination of the biodistribution of these lipid oil drops following in vivo administration is crucial because they act at the site of accumulation. To trace the pharmaceutical composition of the present disclosure in rats, DiO and Rhodamine B are used as fluorescent model drug for hydrophobic small molecule drug and hydrophilic small molecule drug, respectively.
The animal studies involved Lewis rats with masses of approximately 250 g and are performed in compliance with the “Guide for the Care and Use of Laboratory Animals”, which was prepared by the Institute of Laboratory Animal Resources, National Research Council, and published by the National Academy Press in 1996. The Institutional Animal Care and Use Committee of National Tsing Hua University approved all studies. To prepare the enteric-coated gelatin capsules for use in this experiment, hard gelatin capsules (size 9; Torpac Inc., Fairfield, N.J., U.S.A.) are manually filled with a powdered mixture of Rhodamine B (1 mg), DiO (1 mg), capric acid (18 mg), citric acid (6 mg), and sodium bicarbonate (5 mg), as per the manufacturer's instructions. […]

[5] = Lewis, rat, plasma, iv, 12 mg/kg
[6] = Lewis, rat, plasma, po, 12 mg/kg
[7] = Oral group, 12 mg/kg each, rat plasma

- AUC [1, 5]: 41100 ng·h/mL
- Cmax [1, 5]: 16700 ± 4380 ng/mL
- MRT [1, 5]: 3.28 h
- clearance [1, 5]: 4 mL/min/kg
- half-life [1, 5]: 2.36 h
- bioavailability ([1]; Lewis, rat, plasma, oral, 12 mg/kg): 56.8%
- AUC [1, 6]: 23400 ng·h/mL
- Cmax [1, 6]: 3620 ± 1380 ng/mL
- MRT [1, 6]: 5.61 h
- half-life [1, 6]: 6.13 h
- CL [1, 7]: 7.17 mL/min/kg
- Tmaxz [1, 7]: 4.00 h
- time at which the concentration reaches the highest peak, post-administration ([1]; Oral group, FIG. 15B): 4 h
- time post-administration after which the concentration cannot be detected ([2]; iv): 6 h
- AUMC ([2]; iv, 12 mg/kg): 135.11 μg h^2/mL
- time post-administration within which the concentration still can be detected ([2]; po): ≤ 12 h
- AUMC ([2]; po, 12 mg/kg): 131.19 μg h^2/mL
Structure (SMILES): Nc1ccn([C@@H]2O[C@H](CO)[C@@H](O)C2(F)F)c(=O)n1 [GEM, gemcitabine]

- time post-administration after which the concentration cannot be detected ([2]; iv): 6 h
- AUMC ([2]; iv, 12 mg/kg): 39.21 μg h^2/mL
- time at which the concentration reaches the highest peak, post-administration ([2]; po): 6 h
- time post-administration within which the concentration still can be detected ([2]; po): ≤ 12 h
- AUMC ([2]; po, 12 mg/kg): 52.32 μg h^2/mL
- CL ([2]; po, 12 mg/kg): 23 mL/min/kg
- Tmaxz ([2]; po, 12 mg/kg): 8.00 h
- bioavailability (in vivo): 59.2%
- AUC (in vivo; iv): 23600 ng·h/mL
- Cmax (in vivo; iv): 20000 ± 5010 ng/mL
- MRT (in vivo; iv): 1.66 h
- clearance (in vivo; iv): 7 mL/min/kg
- half-life (in vivo; iv): 10.2 h
- AUC (in vivo; po): 7250 ng·h/mL
- Cmax (in vivo; po): 1010 ± 970 ng/mL
- MRT (in vivo; po): 7.22 h
- half-life (in vivo; po): 14.4 h
Structure (SMILES): CC(=O)O[C@H]1C(=O)[C@@]2(C)[C@H]([C@H](OC(=O)c3ccccc3)[C@]3(O)C[C@H](OC(=O)[C@H](O)[C@@H](NC(=O)c4ccccc4)c4ccccc4)C(C)=C1C3(C)C)[C@]1(OC(C)=O)CO[C@@H]1C[C@@H]2O [PTX, paclitaxel]

Structure (SMILES): CCCCCCCCCCCCCCCCCCN1/C(=C\C=C\c2oc3ccccc3[n+]2CCCCCCCCCCCCCCCCCC)Oc2ccccc21.[O-][Cl+3]([O-])([O-])[O-] [DiO]
- uptake into cells (colocalization of DiO and DAPI fluorescence) (RAW 264.7 cells): can be uptake into RAW 264.7 cells

Structure (SMILES): CCN(CC)c1ccc2c(-c3ccccc3C(=O)O)c3ccc(=[N+](CC)CC)cc-3oc2c1.[Cl-] [Rhodamine B]
- organ accumulation (ex vivo IVIS) ([3]; I.V. control group, tail intravenous injection 12 mg/kg each, 1 hour): accumulated in liver, pancreas and kidneys
- organ accumulation (ex vivo IVIS) ([3]; control group, cycloheximide intraperitoneally 1 hour before oral administration, 6 hours): accumulated in liver, pancreas and the lateral surfaces of intestinal tract
- organ accumulation (ex vivo IVIS) ([3]; experiment group, oral 12 mg/kg each, 6 hours): accumulated in liver, pancreas and the lateral surfaces of intestinal tract
- location of fluorescent signals (immunofluorescence staining) [4]: located on the lateral surfaces of the villi, Peyer's patches and tumor

Reference: patent publication US20200146973A1, “Pharmaceutical Composition for Oral Delivery of Hydrophobic Small Molecule Drug and Hydrophilic Small Molecule Drug Concurrently” (National Tsing Hua University, priority 2016, published 2020)
